Assays:
[1] = Hemolytic activity in human RBC at 100 ug/ml incubated for 1 hr; format: toxicity, cell-based, Erythrocyte; conditions: human red blood cells (erythrocytes), at 100 µg/mL, read-out: Activity
[2] = system: Staphylococcus aureus; experiment: Bactericidal activity against Staphylococcus aureus incubated for overnight; format: functional
[3] = system: Acinetobacter baumannii; experiment: Bactericidal activity against Acinetobacter baumannii incubated for overnight; format: functional

| Substance | hemolysis at 1 h, 100 ug/ml [1] [%] | MBC [2] [µg/mL] | MBC [3] [µg/mL] |
| --- | --- | --- | --- |
| H-FDWDSVLKGVEGFVRGYF-OH | 15.2 | > 100 | > 100 |
| H-FKDKSVLKIVDIFVDIYF-OH | 2.7 | > 100 | > 100 |
| H-FKDKSVLKIVKIFVDIYF-OH | 16.3 | > 100 | > 100 |
| H-FKDKSVLKIVKIFVKIYF-OH | 2.2 | > 100 | > 100 |
| H-FKWKSVLKGVDGFVDGYF-OH | 101 | > 100 | > 100 |
| H-FKWKSVLKGVKGFVDGYF-OH | 99.8 | > 100 | > 100 |

— ChEMBL document CHEMBL5346873, “Strategic modification of low-activity natural antimicrobial peptides confers antibacterial potential in vitro and in vivo” (Eur J Med Chem, 2023)
